The values that follow come from ChEMBL document CHEMBL3286109, “Structure-activity relationship studies of indole-based compounds as small molecule HIV-1 fusion inhibitors targeting glycoprotein 41” (J Med Chem, 2014).

The nature of data set [1]: Inhibition of HIV1 HXB2 gp41-mediated cell-cell fusion between viral envelope-expressing human HL2/3 cells to human TZM-bl cells by luciferase reporter assay. It is filed as cell-based. As to conditions: Human immunodeficiency virus 1, HXB2, TZM-bl.
Data set [2] is described as follows: Cytotoxicity against human TZM-bl cells assessed as inhibition of cell viability by resazurin assay. As to conditions: read-out: TC50 (the source's name). (In general: Alamar Blue is a resazurin reagent that responds to reducing activity.)
Data set [3] in a line: Binding affinity to HIV1 Envelope glycoprotein gp41 Fe(env2.0)3 using C18FL as probe by fluorescence assay. Also on record: species or system Human immunodeficiency virus 1.
Data set [4] deals with Human immunodeficiency virus 1. Kind of data set: Antiviral activity against HIV-1 Ba-L infected in human MAGI-CCR5 cells assessed as inhibition of viral replication after 48 hrs by chemiluminescence assay. It is filed as functional, organism-based. As to conditions: Human immunodeficiency virus 1, Ba-L, MAGI-CCR5, 48 h.
For data set [5], the system named is Human immunodeficiency virus 1. Briefly: Antiviral activity against HIV-1 3B infected in human MAGI-CCR5 cells assessed as inhibition of viral replication after 48 hrs by chemiluminescence assay. As to conditions: Human immunodeficiency virus 1, 3B, MAGI-CCR5, 48 h. It is filed as functional, organism-based.
Data set [6] can be described thus: Cytotoxicity against human MAGI-CCR5 cells assessed as inhibition of cell viability by MTS assay. Particulars: read-out: TC50 (the source's name). It is filed as cell-based.

SMILES strings stand for the structures.

As usually defined, the EC50 is the midpoint of the concentration-response curve. One may read the Ki as the equilibrium dissociation constant of an inhibitor or competing ligand from its target. A higher Ki goes with a looser hold on the target. Take `O=C(O)c1cccc(Cn2ccc3ccc(-c4ccc5ccn(Cc6ccc(F)cc6)c5c4)cc32)c1`: the EC50 in data set [1] turned out to be 1.1 µM; in data set [4], 1.6 µM. Further, the CC50 in data set [2] is above 25 µM. This molecule had a Ki in data set [3] of 1.7 µM.
As to `COc1cccc(Cn2ccc3ccc(-c4ccc5ncn(Cc6cccc(C(=O)O)c6)c5c4)cc32)c1`, the EC50 turned out to be 57 µM in data set [5], 34 µM in data set [1] and 54 µM in data set [4]. Besides, the CC50 in data set [6] and in data set [2] was above 100 µM in each case. In data set [3], this molecule came in with a Ki of 6 µM.
As to `COc1cccc(Cn2cnc3ccc(-c4ccc5ccn(Cc6cccc(C(=O)O)c6)c5c4)cc32)c1`, the EC50 in data set [5] was determined as 63 µM; in data set [1], 45 µM; in data set [4], 56 µM. Moreover, the CC50 in data set [6] and in data set [2] was above 100 µM throughout. Besides, the Ki in data set [3] came to 4.7 µM.
In the case of `COc1cccc(Cn2ccc3ccc(-c4ccc5c(Cc6cccc(C(=O)O)c6)c[nH]c5c4)cc32)c1`, the EC50 is 18 µM in data set [5], 7 µM in data set [1] and 18 µM in data set [4]. Also, the CC50 in data set [6] worked out at 34 µM; in data set [2], 57 µM. This molecule had a Ki in data set [3] of 1.6 µM.
Turning to `COc1cccc(Cn2ccc3ccc(-c4ccc5c(c4)ncn5Cc4cccc(C(=O)O)c4)cc32)c1`, the EC50 is above 100 µM in data set [5], 6 µM in data set [1] and 48 µM in data set [4]. For the same molecule, the CC50 in data set [6] and in data set [2] was above 100 µM in each case. The same molecule returned a Ki in data set [3] of 3.8 µM.
Consider `O=C(O)c1cccc(Cn2ccc3ccc(-c4ccc5ccn(Cc6ccc(COc7ccccc7)cc6)c5c4)cc32)c1`, for which the EC50 in data set [5] came out at 32 µM; in data set [1], 17 µM; in data set [4], 27 µM. Besides, the CC50 in data set [6] and in data set [2] was above 100 µM each time. For the same molecule, in data set [3], the affinity, expressed as Ki, was 6.2 µM.
On to `O=C(O)c1cccc(Cn2ccc3ccc(-c4ccc5ccn(Cc6ccccc6)c5c4)cc32)c1`, for which the EC50 in data set [5] turned out to be 4.6 µM; in data set [1] it was 2 µM; in data set [4], 4.4 µM. For the same molecule, the CC50 in data set [6] was above 100 µM; in data set [2] it was above 50 µM. For the same molecule, the Ki in data set [3] came to 3.5 µM.
For the molecule `O=C(O)c1cccc(Cc2c[nH]c3ccc(-c4ccc5cc[nH]c5c4)cc23)c1`, the EC50 came out at 13 µM in data set [5], 5 µM in data set [1] and 13 µM in data set [4]. Also, the CC50 in data set [6] stood at 80 µM; in data set [2], 194 µM. In data set [3], this molecule returned an inhibitory constant (Ki) of 1.7 µM.
As to `COC(=O)c1cccc(Cc2c[nH]c3ccc(-c4ccc5[nH]cc(Cc6cccc(C(=O)O)c6)c5c4)cc23)c1`, the EC50 in data set [5] is 4.8 µM; in data set [1], 2 µM; in data set [4] it was 5 µM. Besides, the CC50 in data set [6] was determined as 31 µM; in data set [2], 99 µM. Moreover, in data set [3], the affinity corresponds to a Ki of 1.2 µM.
As for `O=C(O)c1cccc(Cc2c[nH]c3cc(-c4ccc5cc[nH]c5c4)ccc23)c1`, the EC50 amounted to 14 µM in data set [5], 6 µM in data set [1] and 13 µM in data set [4]. For the same molecule, the CC50 in data set [6] worked out at 23 µM; in data set [2], 290 µM. This molecule also registered a Ki in data set [3] of 0.6 µM.
For `COc1ccc(Cn2ccc3ccc(-c4ccc5c(ccn5Cc5cccc(C(=O)O)c5)c4)cc32)cc1`, the EC50 in data set [5] was determined as 19 µM; in data set [1] it was 7 µM; in data set [4] it was 18 µM. The CC50 was 18 µM in data set [6] and above 100 µM in data set [2]. The molecule further yielded a Ki in data set [3] of 3 µM.
Turning to `COc1cccc(Cc2c[nH]c3cc(-c4ccc5ccn(Cc6cccc(C(=O)O)c6)c5c4)ccc23)c1`, the EC50 in data set [5] was 5.8 µM; in data set [1], 6 µM; in data set [4], 5.6 µM. The CC50 in data set [6] turned out to be 24 µM; in data set [2], 33 µM. Further, in data set [3], the affinity, expressed as Ki, was 0.9 µM.
In the case of `O=C(O)c1cccc(Cn2ccc3ccc(-c4ccc5cc(Cl)ccc5n4)cc32)c1`, the figures for the CC50 in data set [6] and in data set [2] were above 100 µM and 50 µM, respectively. Also, the EC50 in data set [4] amounted to 48 µM.
Turning to `COc1cc(Cn2ccc3ccc(-c4ccc5ccn(Cc6cccc(C(=O)O)c6)c5c4)cc32)cc(OC)c1`, the EC50 worked out at 1.5 µM in data set [5], 2.3 µM in data set [1] and 1.5 µM in data set [4]. In addition, the CC50 in data set [6] was found to be 49 µM; in data set [2], 93 µM. The molecule also showed a Ki in data set [3] of 0.9 µM.
In the case of `Cn1ccc2ccc(-c3ccc4ccn(Cc5cccc(C(=O)O)c5)c4c3)cc21`, the EC50 in data set [5] was 4.3 µM; in data set [1], 1.3 µM; in data set [4], 4.5 µM. For the same molecule, the CC50 in data set [6] and in data set [2] was above 50 µM throughout. The molecule also yielded a Ki in data set [3] of 0.3 µM.
In the case of `COc1ccc(Cn2ccc3cc(-c4ccc5c(ccn5Cc5cccc(C(=O)O)c5)c4)ccc32)cc1`, the EC50 in data set [5] was determined as 20 µM; in data set [1], 12 µM; in data set [4], 18 µM. Moreover, the CC50 in data set [6] was 55 µM; in data set [2] it was above 100 µM. Also, in data set [3], the Ki is 3.9 µM.
As for `COc1cccc(Cn2cnc3cc(-c4ccc5ccn(Cc6cccc(C(=O)O)c6)c5c4)ccc32)c1`, the EC50 was found to be 49 µM in data set [5], 56 µM in data set [1] and 28 µM in data set [4]. Besides, the CC50 in data set [6] and in data set [2] was above 100 µM throughout. In data set [3], this molecule had a Ki of 5.3 µM.
Regarding `O=C(O)c1cccc(Cn2ccc3ccc(-c4ccc5ccn(Cc6ccc(-c7ccccc7)cc6)c5c4)cc32)c1`, the EC50 is 2 µM in data set [5], 13 µM in data set [1] and 2.1 µM in data set [4]. Moreover, the CC50 in data set [6] is 55 µM; in data set [2], above 50 µM. In data set [3], this molecule had a Ki of 2 µM.
Consider `O=C(O)c1cccc(Cn2ccc3ccc(-c4cccc(O)c4)cc32)c1`, for which the EC50 in data set [1] turned out to be 8 µM; in data set [4], 23 µM. The CC50 was found to be 94 µM in data set [6] and 100 µM in data set [2].
Regarding `O=C(O)c1cccc(Cn2ccc3ccc(-c4ccc5ccn(Cc6cccc(C(=O)O)c6)c5c4)cc32)c1`, the EC50 amounted to 67 µM in data set [5], 12 µM in data set [1] and 58 µM in data set [4]. Further, the CC50 in data set [6] and in data set [2] was above 100 µM in each case. This molecule came in with a Ki in data set [3] of 0.6 µM.
In the case of `COc1cccc(-c2ccc3ccn(Cc4cccc(C(=O)O)c4)c3c2)c1`, the results for the EC50 in data set [1] and in data set [4] were 14 µM and 28 µM, respectively. Also, the CC50 in data set [6] and in data set [2] was above 100 µM in each case.
In the case of `COc1ccc(Cn2ccc3cc(-c4ccc5ccn(Cc6cccc(C(=O)O)c6)c5c4)ccc32)cc1`, the EC50 in data set [5] was 8.3 µM; in data set [1] it was 3.5 µM; in data set [4] it was 6.9 µM. Also, the CC50 was 24 µM in data set [6] and 91 µM in data set [2]. This molecule displayed a Ki in data set [3] of 4.2 µM.
Take `Cn1nnc2ccc(Cn3ccc4ccc(-c5ccc6ccn(Cc7cccc(C(=O)O)c7)c6c5)cc43)cc21`: the EC50 was found to be 9.4 µM in data set [5], 2.5 µM in data set [1] and 6.6 µM in data set [4]. For the same molecule, the CC50 in data set [6] was 52 µM; in data set [2] it was above 100 µM. In data set [3], the affinity, expressed as Ki, was 1.5 µM.
Turning to `O=C(O)c1cccc(Cn2ccc3ccc(-c4ccc5ccn(Cc6ccc(C(F)(F)F)cc6)c5c4)cc32)c1`, the EC50 in data set [5] came to 1 µM; in data set [1], 2 µM; in data set [4] it was 0.9 µM. The CC50 in data set [6] is 52 µM; in data set [2] it was above 50 µM. In addition, the Ki in data set [3] is 1 µM.
For the molecule `O=C(O)c1cccc(Cn2ccc3ccc(-c4ccc5ccn(Cc6ccc(Oc7ccccc7F)cc6)c5c4)cc32)c1`, the values for the EC50 in data set [5], in data set [1] and in data set [4] were 5.5 µM, 8.2 µM and 5.3 µM, respectively. Moreover, the CC50 in data set [6] and in data set [2] was above 100 µM throughout. In addition, in data set [3], the affinity corresponds to a Ki of 9.5 µM.
As to `O=C(O)c1cccc(Cn2cnc3cc(-c4ccc5cc[nH]c5c4)ccc32)c1`, the EC50 in data set [5] was above 100 µM; in data set [1] it was 124 µM; in data set [4], above 100 µM. In addition, the CC50 in data set [6] and in data set [2] was above 100 µM in each case. Affinity in data set [3] was put at a Ki of 16 µM.
As to `COc1ccc(Cn2ccc3ccc(-c4ccc5ccn(Cc6cccc(C(=O)O)c6)c5c4)cc32)cc1`, the EC50 in data set [5] and in data set [4] was 0.9 µM throughout. For the same molecule, the results for the CC50 in data set [6] and in data set [2] were 32 µM and 20 µM, respectively.
Take `O=C(O)c1cccc(Cn2ccc3cc(-c4ccc5ccn(Cc6cccc(C(=O)O)c6)c5c4)ccc32)c1`: the EC50 turned out to be 17 µM in data set [5], 2 µM in data set [1] and 20 µM in data set [4]. The CC50 in data set [6] and in data set [2] was above 100 µM throughout. The same molecule gave a Ki in data set [3] of 0.7 µM.
As to `COc1cccc(Cn2ccc3ccc(-c4ccc5ccn(Cc6cccc(C(=O)O)c6)c5c4)cc32)c1`, the EC50 came to 0.9 µM in data set [5], 1 µM in data set [1] and 0.9 µM in data set [4]. The CC50 in data set [6] is 37 µM; in data set [2] it was 71 µM. In data set [3], this molecule registered a Ki of 1.1 µM.
In the case of `O=C(O)c1cccc(Cn2cnc3ccc(-c4ccc5cc[nH]c5c4)cc32)c1`, the EC50 in data set [5] is 36 µM; in data set [1], 14 µM; in data set [4], 41 µM. For the same molecule, the CC50 in data set [6] and in data set [2] was above 100 µM in each case. The affinity in data set [3] corresponds to a Ki of 11 µM.
For `NC(=O)c1cccc(Cn2ccc3ccc(-c4ccc5ccn(Cc6cccc(C(=O)O)c6)c5c4)cc32)c1`, the EC50 in data set [5] worked out at 51 µM; in data set [1], 6 µM; in data set [4] it was 39 µM. Also, the CC50 in data set [6] and in data set [2] was above 100 µM each time. In addition, the Ki in data set [3] was determined as 0.8 µM.
For `O=C(O)c1cccc(Cn2ccc3cc(-c4ccc5cc(Cl)ccc5n4)ccc32)c1`, the EC50 came out at 8 µM in data set [1] and 6 µM in data set [4]. Also, the CC50 in data set [2] was determined as 100 µM.
